Measurements reported in patent US20020137929A1, “1 - (3-heterocyclylphenyl) isothiourea, -isourea, -guanidine and -amidine herbicidal agents” (Intellectual Property Department, BASF Aktiengesellschaft, priority 1998, published 2002).

Assays:
[1] = system: GLXMAW (Soybean, Williams); test: Postemergence herbicidal evaluation; format: in vivo, Glycine max, (L.) Merr. cv Williams
Summary of the method: (§1)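 Visual 0–9 rating versus control (stand, vigor, malformation, size, chlorosis, overall appearance), taken four to five weeks post-spray. Two-week-old seedlings received roughly 0.0156–0.500 kg/ha active in acetone/water (50/50) with 0.5% TWEEN 20 via nozzle at 40 psi.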

CYPIR (Rice Flatsedge) = test: Postemergence weed control under flooded paddy conditions; format: in vivo, Cyperus iria; settings: postemergence weeds, 3-4 weeks after treatment
Summary of the method: (§2)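 Weeds 3 to 5 cm tall and rice seedlings at the 1.5 to 2.5 leaf stage were flooded, with water held 1.5 to 3 cm above the soil. Compounds in 50/50 v/v aqueous/acetone went into the flood water at about 0.0313 to 0.500 kg/ha. Visual 0-9 ratings versus control were made 3 to 4 weeks later.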

[2] = system: ECHORC (Watergrass (Calif.)); test: Preemergence weed control under flooded paddy conditions; format: in vivo, Echinochloa oryzoides; settings: rated 3-4 weeks after treatment
Summary of the method: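 Seeds or propagules sown in silt loam kept flooded 1.5-3 cm; compounds in 50/50 acetone/water pipetted into flood water at about 0.0313 to 0.500 kg/ha. Greenhouse; visual 0-9 rating versus untreated control 3-4 weeks after treatment.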

SETVI (Foxtail, Green) = test: Postemergence herbicidal evaluation; format: in vivo, Setaria viridis
Summary of the method: as §1

ZEAMX (Corn, Field) = test: Postemergence herbicidal evaluation; format: in vivo, Zea mays
Summary of the method: as §1

ABUTH (Velvetleaf) [3] = test: Preemergence herbicidal evaluation; format: in vivo, Abutilon theophrasti; settings: rated 4-5 weeks after treatment
Summary of the method: (§3)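 Seeds were planted in potting soil in cups, then sprayed preemergence with the test compound in aqueous acetone at about 0.0156 to 0.500 kg per hectare. Cups were kept under greenhouse conditions and visually rated 4–5 weeks after treatment on a 0–9 scale against an untreated control.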

CYPSE (Flatsedge) = test: Preemergence weed control under flooded paddy conditions; format: in vivo, Cyperus serotinus; settings: rated 3-4 weeks after treatment
Summary of the method: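 Values are visual 0-9 scores against a control for a preemergence application into paddy flood water at about 0.0313 to 0.500 kg/ha. Greenhouse duration was three to four weeks.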

CASOB (Sicklepod) = test: Preemergence herbicidal evaluation; format: in vivo, Cassia obtusifolia; settings: rated 4-5 weeks after treatment
Summary of the method: as §3

ECHCG (Barnyardgrass) = test: Preemergence herbicidal evaluation; format: in vivo, Echinochloa crus-galli; settings: rated 4-5 weeks after treatment
Summary of the method: as §3

ABUTH (Velvetleaf) [4] = test: Postemergence herbicidal evaluation; format: in vivo, Abutilon theophrasti
Summary of the method: as §1

[5] = system: IPOHE (Morningglory, Ivyleaf); test: Preemergence herbicidal evaluation; format: in vivo, Ipomoea hederacea; settings: rated 4-5 weeks after treatment
Summary of the method: as §3

AMBEL (Ragweed, Common) = test: Preemergence herbicidal evaluation; format: in vivo, Ambrosia artemisifolia; settings: rated 4-5 weeks after treatment
Summary of the method: as §3

[6] = system: ECHORC (Watergrass (Calif.)); test: Postemergence weed control under flooded paddy conditions; format: in vivo, Echinochloa oryzoides; settings: postemergence weeds, 3-4 weeks after treatment
Summary of the method: as §2

[7] = system: IPOHE (Morningglory, Ivyleaf); test: Postemergence herbicidal evaluation; format: in vivo, Ipomoea hederacea
Summary of the method: as §1

O=C(O)CC1SC(=Nc2cc(N3C(=O)C4=C(CCCC4)C3=O)c(F)cc2Cl)N(CC(=O)O)C1=O (centres unmarked) [Compound 48, 2-{[2-Chloro-5-(1-cyclohexene-1,2-dicarboximido)-4-fluorophenyl]imino}-4-oxo-3,5-thiazolidinediacetic acid]
5.0: Herbicidal rating CYPIR (CYPIR (Rice Flatsedge); rate 0.2500 kg/ha)
4.0: Preemergence herbicidal rating ABUTH (ABUTH (Velvetleaf) [3]; rate 0.0625 kg/ha) | Preemergence herbicidal rating AMBEL (AMBEL (Ragweed, Common); rate 0.2500 kg/ha)
6.0: Postemergence herbicidal rating GLXMAW ([1]; Rate 0.0313 kg/ha) | Herbicidal rating ECHORC ([2]; 0.2500 kg/ha) | Herbicidal rating ECHORC ([6]; rate 0.2500 kg/ha)
7.5: Postemergence herbicidal rating GLXMAW ([1]; Rate 0.0625 kg/ha)
9.0: Preemergence herbicidal rating ABUTH (ABUTH (Velvetleaf) [3]; rate 0.1250 kg/ha) | Preemergence herbicidal rating ABUTH (ABUTH (Velvetleaf) [3]; rate 0.2500 kg/ha) | Postemergence herbicidal rating ABUTH (ABUTH (Velvetleaf) [4]; Rate 0.0156 kg/ha) | Postemergence herbicidal rating ABUTH (ABUTH (Velvetleaf) [4]; Rate 0.0313 kg/ha) | Postemergence herbicidal rating ABUTH (ABUTH (Velvetleaf) [4]; Rate 0.0625 kg/ha) | Postemergence herbicidal rating IPOHE ([7]; Rate 0.0156 kg/ha) | Postemergence herbicidal rating IPOHE ([7]; Rate 0.0313 kg/ha) | Postemergence herbicidal rating IPOHE ([7]; Rate 0.0625 kg/ha)
5.5: Postemergence herbicidal rating GLXMAW ([1]; Rate 0.0156 kg/ha) | Postemergence herbicidal rating ZEAMX (ZEAMX (Corn, Field); Rate 0.0156 kg/ha) | Postemergence herbicidal rating ZEAMX (ZEAMX (Corn, Field); Rate 0.0313 kg/ha)
3.0: Herbicidal rating ECHORC ([2]; 0.1250 kg/ha) | Preemergence herbicidal rating CASOB (CASOB (Sicklepod); rate 0.2500 kg/ha) | Herbicidal rating ECHORC ([6]; rate 0.1250 kg/ha)
2.0: Herbicidal rating CYPIR (CYPIR (Rice Flatsedge); rate 0.1250 kg/ha) | Postemergence herbicidal rating SETVI (SETVI (Foxtail, Green); Rate 0.0625 kg/ha)
6.5: Postemergence herbicidal rating ZEAMX (ZEAMX (Corn, Field); Rate 0.0625 kg/ha)
0.0: Postemergence herbicidal rating SETVI (SETVI (Foxtail, Green); Rate 0.0156 kg/ha) | Postemergence herbicidal rating SETVI (SETVI (Foxtail, Green); Rate 0.0313 kg/ha) | Preemergence herbicidal rating ABUTH (ABUTH (Velvetleaf) [3]; rate 0.0156 kg/ha) | Preemergence herbicidal rating ABUTH (ABUTH (Velvetleaf) [3]; rate 0.0313 kg/ha) | Herbicidal rating CYPSE (CYPSE (Flatsedge); 0.1250 kg/ha) | Herbicidal rating CYPSE (CYPSE (Flatsedge); 0.2500 kg/ha) | Preemergence herbicidal rating CASOB (CASOB (Sicklepod); rate 0.0156 kg/ha) | Preemergence herbicidal rating CASOB (CASOB (Sicklepod); rate 0.0313 kg/ha) | Preemergence herbicidal rating CASOB (CASOB (Sicklepod); rate 0.0625 kg/ha) | Preemergence herbicidal rating CASOB (CASOB (Sicklepod); rate 0.1250 kg/ha) | Preemergence herbicidal rating ECHCG (ECHCG (Barnyardgrass); rate 0.0156 kg/ha) | Preemergence herbicidal rating ECHCG (ECHCG (Barnyardgrass); rate 0.0313 kg/ha) | Preemergence herbicidal rating ECHCG (ECHCG (Barnyardgrass); rate 0.0625 kg/ha) | Preemergence herbicidal rating ECHCG (ECHCG (Barnyardgrass); rate 0.1250 kg/ha) | Preemergence herbicidal rating ECHCG (ECHCG (Barnyardgrass); rate 0.2500 kg/ha) | Preemergence herbicidal rating IPOHE ([5]; rate 0.0156 kg/ha) | Preemergence herbicidal rating IPOHE ([5]; rate 0.0313 kg/ha) | Preemergence herbicidal rating IPOHE ([5]; rate 0.0625 kg/ha) | Preemergence herbicidal rating IPOHE ([5]; rate 0.2500 kg/ha) | Preemergence herbicidal rating AMBEL (AMBEL (Ragweed, Common); rate 0.0156 kg/ha) | Preemergence herbicidal rating AMBEL (AMBEL (Ragweed, Common); rate 0.0313 kg/ha) | Preemergence herbicidal rating AMBEL (AMBEL (Ragweed, Common); rate 0.0625 kg/ha) | Preemergence herbicidal rating AMBEL (AMBEL (Ragweed, Common); rate 0.1250 kg/ha)
